Results from PubChem BioAssay AID1919015 (Molecular Pharmacology Branch, DTP, NCI, 2023).

System: OVCAR-5 complex spheroids with HUVEC/MSC, viability, % test/control
Assay: Anticancer human tumor OVCAR-5 cell line growth inhibition [AhR];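 further: spheroids exposed to compounds for 7 days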;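 on viability, T/C: 100% = DMSO vehicle control wells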
Settings: for IC50: curve of first compound; for viability, T/C: stronger effect = lower value
How it was run: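 Complex tumor spheroids co-cultured with HUVEC and human MSC stroma; AhR antagonists tested in combination with standard-of-care and investigational agents. Top concentration at or near clinical Cmax (else 10 microM), half-log dilutions; growth expressed as percent test/control.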

[1] = second compound 0.1 µM, first compound 0.0316 µM
[2] = second compound 0.1 µM, first compound 0.1 µM
[3] = second compound 0.1 µM, first compound 0.316 µM
[4] = second compound 0.1 µM, first compound 1 µM
[5] = second compound 0.1 µM, first compound 3.16 µM
[6] = second compound 0.1 µM, first compound 10 µM
[7] = second compound 0.316 µM, first compound 0.0316 µM
[8] = second compound 0.316 µM, first compound 0.1 µM
[9] = second compound 0.316 µM, first compound 0.316 µM
[10] = second compound 0.316 µM, first compound 1 µM
[11] = second compound 0.316 µM, first compound 3.16 µM
[12] = second compound 0.316 µM, first compound 10 µM
[13] = second compound 1 µM, first compound 0.0316 µM
[14] = second compound 1 µM, first compound 0.1 µM
[15] = second compound 1 µM, first compound 0.316 µM
[16] = second compound 1 µM, first compound 1 µM
[17] = second compound 1 µM, first compound 3.16 µM
[18] = second compound 1 µM, first compound 10 µM
[19] = second compound 3.16 µM, first compound 0.0316 µM
[20] = second compound 3.16 µM, first compound 0.1 µM
[21] = second compound 3.16 µM, first compound 0.316 µM
[22] = second compound 3.16 µM, first compound 1 µM
[23] = second compound 3.16 µM, first compound 3.16 µM
[24] = second compound 3.16 µM, first compound 10 µM
[25] = second compound 10 µM, first compound 0.0316 µM
[26] = second compound 10 µM, first compound 0.1 µM
[27] = second compound 10 µM, first compound 0.316 µM
[28] = second compound 10 µM, first compound 1 µM
[29] = second compound 10 µM, first compound 3.16 µM
[30] = second compound 10 µM, first compound 10 µM

Row | Compound | IC50 (second compound 0.1 µM) [nM] | IC50 (second compound 0.316 µM) [nM] | IC50 (second compound 1 µM) [nM] | IC50 (second compound 3.16 µM) [nM] | IC50 (second compound 10 µM) [nM] | viability, T/C [1] [%] | viability, T/C [2] [%] | viability, T/C [3] [%] | viability, T/C [4] [%] | viability, T/C [7] [%] | viability, T/C [8] [%] | viability, T/C [9] [%] | viability, T/C [10] [%] | viability, T/C [13] [%] | viability, T/C [14] [%] | viability, T/C [15] [%] | viability, T/C [16] [%] | viability, T/C [19] [%] | viability, T/C [20] [%] | viability, T/C [21] [%] | other results
1 | Nc1ccccc1NC(=O)c1ccc(CNC(=O)OCc2cccnc2)cc1 + CC(CO)NC(=O)c1cc(-c2ccc(Cl)cc2)nn(-c2cnn(C)c2)c1=O | 481 | 514 | 512 | 444 | 397 | 92 | 80.7 | 59.7 | 32.3 | 95.9 | 86.6 | 63.2 | 31 | 95.2 | 85.3 | 63.6 | 30.9 | 85.9 | 77.8 | 59.7 | viability, T/C [5]: 19.5%; viability, T/C [6]: 7.46%; viability, T/C [11]: 18.3%; viability, T/C [12]: 7.56%; viability, T/C [17]: 17.4%; viability, T/C [18]: 7.87%; viability, T/C [22]: 27.9%; viability, T/C [23]: 14.6%; viability, T/C [24]: 6.5%; viability, T/C [25]: 83.9%; viability, T/C [26]: 81.3%; viability, T/C [27]: 55.1%; viability, T/C [28]: 24.6%; viability, T/C [29]: 12.8%; viability, T/C [30]: 4.72%
2 | CC1COCCN1c1cc(-c2ccnn2C)c2ccnc(-c3ccn[nH]3)c2n1 (stereo not given) + CC(CO)NC(=O)c1cc(-c2ccc(Cl)cc2)nn(-c2cnn(C)c2)c1=O | 281 | 276 | 297 | 207 | 95.8 | 110 | 87 | 46.2 | 30.8 | 109 | 87 | 45.1 | 32.1 | 118 | 89 | 48.6 | 35.4 | 102 | 67.6 | 40.3 | viability, T/C (second compound 0.1 µM, first compound 0.00316 µM): 111%; viability, T/C (second compound 0.1 µM, first compound 0.01 µM): 111%; viability, T/C (second compound 0.316 µM, first compound 0.00316 µM): 111%; viability, T/C (second compound 0.316 µM, first compound 0.01 µM): 113%; viability, T/C (second compound 1 µM, first compound 0.00316 µM): 119%; viability, T/C (second compound 1 µM, first compound 0.01 µM): 121%; viability, T/C (second compound 3.16 µM, first compound 0.00316 µM): 106%; viability, T/C (second compound 3.16 µM, first compound 0.01 µM): 115%; viability, T/C [22]: 35%; viability, T/C (second compound 10 µM, first compound 0.00316 µM): 99.7%; viability, T/C (second compound 10 µM, first compound 0.01 µM): 103%; viability, T/C [25]: 83.9%; viability, T/C [26]: 49%; viability, T/C [27]: 35.5%; viability, T/C [28]: 33.5%
3 | CC(C)c1c(-c2ccccc2)nc2c(C#N)c[nH]n2c1=O + Cc1cncc(-c2nc(NCCc3c[nH]c4ccccc34)c3ncn(C(C)C)c3n2)c1 | > 10000 | > 10000 | > 10000 | > 10000 | < 31.6 | 100 | 99.5 | 100 | 100 | 101 | 103 | 98.5 | 102 | 96.8 | 99.1 | 100 | 94.1 | 81.5 | 84.1 | 86.1 | viability, T/C [5]: 96.4%; viability, T/C [6]: 106%; viability, T/C [11]: 95.2%; viability, T/C [12]: 106%; viability, T/C [17]: 94.8%; viability, T/C [18]: 103%; viability, T/C [22]: 83.6%; viability, T/C [23]: 90.1%; viability, T/C [24]: 88.7%; viability, T/C [25]: 14.2%; viability, T/C [26]: 14.2%; viability, T/C [27]: 17.8%; viability, T/C [28]: 16.3%; viability, T/C [29]: 16%; viability, T/C [30]: 25.1%
4 | CC(C)c1c(-c2ccccc2)nc2c(C#N)c[nH]n2c1=O + CC(CO)NC(=O)c1cc(-c2ccc(Cl)cc2)nn(-c2cnn(C)c2)c1=O | > 10000 | > 10000 | > 10000 | > 10000 | > 10000 | 117 | 111 | 112 | 115 | 107 | 117 | 114 | 115 | 114 | 121 | 119 | 116 | 99 | 108 | 107 | viability, T/C [5]: 114%; viability, T/C [6]: 116%; viability, T/C [11]: 116%; viability, T/C [12]: 119%; viability, T/C [17]: 117%; viability, T/C [18]: 121%; viability, T/C [22]: 105%; viability, T/C [23]: 111%; viability, T/C [24]: 111%; viability, T/C [25]: 101%; viability, T/C [26]: 105%; viability, T/C [27]: 100%; viability, T/C [28]: 101%; viability, T/C [29]: 103%; viability, T/C [30]: 104%
